Experimental data as given in publication PMC11874377, “Fungal-derived methyldeoxaphomins target Plasmodium falciparum segregation through the inhibition of PfActin1” (Proceedings of the National Academy of Sciences of the …, 2025).
Read-outs that look alike come from different tables or passages of the source.

Assays:
barbed end of F-actin = conditions: read-out: binding affinity Kd; cited from earlier work
Dd2-Pol δ parent line = assay: Resistant parasite phenotyping and cross resistance, SYBR green I EC50 assay, parent line; assay type: cell-based, Plasmodium falciparum; conditions: strain Dd2-Pol δ -parent, read-out: EC50 (mean ± SEM)
Description: (§1) Cloning by limiting dilution was then performed to isolate individual lines from the bulk population. Due to the multiple mutations identified in the first biological replicate, we isolated four clones from this bulk culture as compared to two clones each from the second and third replicates. These clones were phenotyped via a SYBR green I-based dose–response assay (Table 2 and Fig. 2B). […] The DNA of these clones was then extracted and subjected to whole-genome sequencing.
(§2) Resistant parasite phenotyping and cross resistance measurement
(§3) The EC50 assay was performed at 1% parasitemia, 1% hematocrit with SYBR green I in 96-well plates. The highest final concentration of the methyldeoxaphomin NPDG-F was set at 100 μM. Briefly, the compound was subjected to a 3-fold serial dilution with ten dilution points. Three technical replicates were set up at each dilution point. The Dd2-Pol δ parent line and the resistant parasites at 2% hematocrit and 1% parasitemia were added to the drug media at 1:1 ratio. The plate was incubated at 37°C for 72 hours in a chamber filled with a hypoxic gas mixture (3% oxygen, 5% carbon dioxide, and 92% nitrogen). After incubation, the cells were lysis with lysis buffer (20 mM Tris-HCL, 0.08% saponin, 5 mM EDTA, and 0.8% Triton X-100) containing SYBR green I (10,000X, Thermo Fisher, cat # S7563) overnight. Fluorescence was measured at 485nm excitation and 530nm emission using a PHERAstar FSX plate reader (BMG Labtech, Germany). Dose response curves were graphed with Prism 9 Version 9.5.1.
3D structural analysis of the mutations and docking studies
The crystal structure of PfActin1 with accession number 6TU4 (resolution 2.60 Ang) (Vahokoski et al., 2022) was obtained from the Protein Data Bank (PDB). This structure of PfActin1 contains ligands Jasplakinolide and ADP with a coordinating magnesium ion.
Only chain A was used for the docking experiment. […] Schrodinger maestro software (Schrödinger, LLC) was used to build NPDG-F with the proper stereochemistry using the x-ray structure determined for analog NPDG-A (vide supra). […]

[1] = test system: in vitro evolved NPDG-F-resistant Dd2-Pol δ clones (PfActin1 mutations); assay: Resistant parasite phenotyping and cross resistance, SYBR green I EC50 assay, NPDG-F-resistant clones; assay type: cell-based, Plasmodium falciparum; conditions: for EC50: read-out: EC50 (mean ± SEM)
Description: as §1
To investigate whether NPDG-F has the same mode of action as cytochalasin D, we tested our clones for sensitivity to both cytochalasin D and jasplakinolide.
as §2
as §3, with “9.5.1. […]” for “9.5.1.”

P. falciparum = assay: Isobologram assay with NPDG-F; assay type: cell-based, Plasmodium falciparum
Description: To further explore the relationship of NPDG-F with established actin-interfering drugs, an isobologram study was performed (Fig. 3). NPDG-F was added in combination with four inhibtors known to interfere with actin polymerization including a formin inhibitor SMIFH2, cofilin inhibitor SZ-3, F-actin targeting compound jasplakinolide, and G-actin targeting latrunculin B. The frontline antimalarial DHA was also added as a nonactin inhibitor control. After dose–response curves were generated (Fig. 3A), the fractional inhibitory concentrations (FICs) of NPDG-F and the combination drug were calculated and graphed. […]
Plasmodium blood stage culture
Parasite culture in the Chakrabarti lab was maintained following a modified Trager and Jensen protocol (Trager & Jensen, 1976) as previously described (Lee et al., 2021) with RPMI 1640 with 25 mM HEPES pH 7.4, 26 mM NaHCO3, 15 mg/L hypoxanthine, 0.5% Albumax II, 25 mg/L gentamycin, and 2% dextrose. Parasites were grown with human A+ erythrocytes obtained from Florida OneBlood. Cultures were kept in an incubator with 5% […]
Antiplasmodial activity screening
SYBR Green I-based fluorescence assay was performed as previously described (Lee et al., 2021) following protocols by Smilkstein et. al. (Smilkstein et al., 2004). Asynchronous Dd2 parasites were added to serially diluted compounds and incubated for 72 h at 5% CO2, 95% air at 37°C. Plates were then frozen at -80°C, thawed, and incubated for one hour with 1x SYBR Green I in a lysis buffer (20 mM Tris-HCL, 0.08% saponin, 5 mM EDTA, and 0.8% Triton X-100). Fluorescence was then read on a Synergy Neo2 multimode reader (BioTek Winsooki, VT). Compound dose response curves and EC50 determination was performed using CDD Vault normalized to 10 µM CQ and vehicle […]
For isobologram assessment, inhibitors were tested using a 1:2 dilution with starting concentrations selected as 40 nM for DHA, 100 µM Latrunculin B, 100 µM SMIFH2, and 40 nM for jasplakinolide. These concentrations were selected to provide 2-3 points above […]
EC50s. The test inhibitor methyldeoxaphomin NPDG-F was then added in combination with the aforementioned inhibitors at concentrations ranging from 10 to 0.3125 µM. Dose-response curves were then generated for the available conditions where EC50s could be determined. The fractional inhibitor concentration of both compounds was then determined as described (Fivelman et al., 2004) for the available points and graphed on a scale of 0-1 also using Graphpad Prism version 10. […]

C=C1[C@@H](C)[C@H]2[C@H](Cc3ccccc3)NC(=O)[C@]23[C@H](OC(C)=O)/C=C/[C@@](C)(O)C(=O)[C@@H](C)C/C=C/[C@H]3[C@@H]1O [Cytochalasin D, cytochalasin D]
Kd (barbed end of F-actin): ~2 nM | EC50 (Dd2-Pol δ parent line; Plasmodium falciparum): 17.3 ± 0.5 nM | cross-resistance of NPDG-F-resistant clones [1]: cross-resistant | average EC50 shift, clones from flasks 2 and 3 ([1]; A136S): 3.9 fold | average EC50 shift, clones from flask 1 ([1]; A171V/S and I290L clones): 20 fold | EC50 ([1]; Plasmodium falciparum, DD2, clone 1-C7, A171S (8%), A171V (92%), I290L): 302 ± 8.8 nM | EC50 ([1]; Plasmodium falciparum, DD2, clone 1-D6, A171S (3%), A171V (97%), I290L): 317 ± 9.2 nM | EC50 ([1]; Plasmodium falciparum, DD2, clone 1-D7, A171S (22%), A171V (78%), I290L): 402 ± 7 nM | EC50 ([1]; Plasmodium falciparum, DD2, clone 1-F3, A171S (4%), A171V (96%), I290L): 367 ± 7.8 nM | EC50 ([1]; Plasmodium falciparum, DD2, clone 2-C4, A136S): 60.8 ± 0.8 nM | EC50 ([1]; Plasmodium falciparum, DD2, clone 2-F5, A136S): 71.3 ± 1.7 nM | EC50 ([1]; Plasmodium falciparum, DD2, clone 3-C3, A136S): 66.4 ± 0.2 nM | EC50 ([1]; Plasmodium falciparum, DD2, clone 3-C5, A136S): 73.2 ± 0.7 nM | Fold change ([1]; clone 1-C7 vs Dd2-Pol δ parent): 17.5 | Fold change ([1]; clone 1-D6 vs Dd2-Pol δ parent): 18.3 | Fold change ([1]; clone 1-D7 vs Dd2-Pol δ parent): 23.3 | Fold change ([1]; clone 1-F3 vs Dd2-Pol δ parent): 21.2 | Fold change ([1]; clone 2-C4 vs Dd2-Pol δ parent): 3.5 | Fold change ([1]; clone 2-F5 vs Dd2-Pol δ parent): 4.1 | Fold change ([1]; clone 3-C3 vs Dd2-Pol δ parent): 3.8 | Fold change ([1]; clone 3-C5 vs Dd2-Pol δ parent): 4.2

C/C1=C\[C@H](C)C[C@H](C)OC(=O)C[C@H](c2ccc(O)cc2)NC(=O)[C@@H](Cc2c(Br)[nH]c3ccccc23)N(C)C(=O)[C@H](C)NC(=O)[C@@H](C)C1 [Jasplakinolide, jasplakinolide]
EC50 (Dd2-Pol δ parent line): 25.1 ± 1.4 nM | fractional inhibitory concentration (FIC) (P. falciparum; combination with NPDG-F): highest FIC values overall | IC50 (P. falciparum; single compounds, dose–response, Fig. 3A, read-out: Mean IC50 ± SEM): 58 ± 17 nM | EC50 ([1]; clone 1-C7, A171S (8%), A171V (92%), I290L): 25.2 ± 0.4 nM | Fold change ([1]; clone 1-C7 vs Dd2-Pol δ parent): 1.0 | EC50 ([1]; clone 1-D6, A171S (3%), A171V (97%), I290L): 27.6 ± 4 nM | Fold change ([1]; clone 1-D6 vs Dd2-Pol δ parent): 1.1 | EC50 ([1]; clone 1-D7, A171S (22%), A171V (78%), I290L): 25.9 ± 0.8 nM | Fold change ([1]; clone 1-D7 vs Dd2-Pol δ parent): 1.0 | EC50 ([1]; clone 1-F3, A171S (4%), A171V (96%), I290L): 30.7 ± 3.2 nM | Fold change ([1]; clone 1-F3 vs Dd2-Pol δ parent): 1.2 | EC50 ([1]; clone 2-C4, A136S): 22.4 nM | Fold change ([1]; clone 2-C4 vs Dd2-Pol δ parent): 0.9 | EC50 ([1]; clone 2-F5, A136S): 25.1 ± 2.9 nM | Fold change ([1]; clone 2-F5 vs Dd2-Pol δ parent): 1.0 | EC50 ([1]; clone 3-C3, A136S): 24 nM | Fold change ([1]; clone 3-C3 vs Dd2-Pol δ parent): 1.0 | EC50 ([1]; clone 3-C5, A136S): 25.4 ± 2.1 nM | Fold change ([1]; clone 3-C5 vs Dd2-Pol δ parent): 1.0
